# From patent US12590057B2, “Crystalline complexes” (Theracryf PLC, priority 2020, dated 2026)
# Marks after values point to notes of the source that are not given here.
# Legend:
# Format in all cases: physicochemical
# [1] = Preliminary stability study, related substances by HPLC; details: 25° C./60% RH stability
# Protocol: Analysis of samples of sulforaphane:alpha-cyclodextrin complexes as prepared herein were carried out by HPLC according to the following method: • Column—Phenomenex Gemini C18, 5 μm, 110 Å, 250×4.6 mm; • Mobile Phase A: Water (+0.1% TFA); • Mobile Phase B: Acetonitrile (+0.1% TFA); • Flow: 1.5 mL/min; • Injection Volume: 10 μL; • Column Temperature: 25° C.; • Run Time: 40 minutes; • Sample preparation—Accurately weighed and transferred about 320 mg±30 mg of the sample to a 25-mL volumetric flask, added about 15 mL of diluent (70% water, 30% acetonitrile, 0.1% TFA) and mixed until dissolved. Diluted to volume with diluent and mixed. Transferred 3-4 mL to a syringe and filtered using a 0.45 PTFE filter, discarding the first 1-2 ml, and filtered into an autosampler vial and sealed with PTFE lined cap (prepared in duplicate); • HPLC Gradient according to Table 12
# Sulforaphane and certain related impurity peaks are summarised in Table 13, Characterisation of the impurities was carried out by LC-MS and ^1H-NMR. Relative Retention Times (RRT) are based on the HPLC method described above.
# Samples of Form 1 (batch ref. LS19-0004-S-8002), Form 3 prepared by minimally-agitated drying (Example 5.3; batch ref. 491-PAL-18) and Form 3 prepared by continuously-agitated filter drying (Example 5B—trial 5; batch ref. 00173-005) were stored at 5° C. (Table 14) and at 25° C./60% RH (Table 15) for 8 weeks in 60 ml Duma® bottles fitted with 45 mm Duma® caps and samples were analysed by HPLC according to the above method.
# [2] = TGA mass loss (water content) after exposure to ambient conditions
# Protocol: TGA data were collected on a TA Instruments Discovery TGA, equipped with a 25-position auto-sampler. Typically, 5-10 mg of each sample was loaded onto a pre-tared aluminium DSC pan and heated at 10° C./min from ambient temperature to 350° C. A nitrogen purge at 25 ml/min was maintained over the sample. The instrument control software was TRIOS and the data were analysed using TRIOS or Universal Analysis.
# Example 3 was also analysed by TGA at days 1, 3, 7, 9, 15 and 20 after removal from the vacuum oven and exposure to ambient conditions, as described in Table 6.
# [3] = XRPD physical form after storage; details: days 7, 9 and 29 after removal from drying oven, ambient conditions
# Protocol: XRPD diffractograms were collected on a PANalytical Empyrean diffractometer using Cu Kα radiation (45 kV, 40 mA) in transmission geometry. A 0.5° sat, 4 mm mask and 0.04 rad Soller slits with a focusing mirror were used on the incident beam. A PIXcel^3D detector, placed on the diffracted beam, was fitted with a receiving slit and 0.04 rad Soller slits. The software used for data collection was X'Pert Data Collector using X'Pert Operator Interface. The data were analysed and presented using Diffrac Plus EVA or HighScore Plus.
# After removal from the vacuum oven (day 0), Example 3 was reanalysed by XRPD in reflection mode on days 7, 9 and 29.
# In a separate study, samples of Form 3 (Example 5.3; batch ref. 491-PAL-18) having an initial water content by KF of 2.3% w/w were tested for water content at various time points after storage double bagged in a HDPE bottle under various conditions as shown in Table 17.
smiles,measurement,setting,value
C[S+]([O-])CCCCN=C=S.OCC1OC2OC3C(CO)OC(OC4C(CO)OC(OC5C(CO)OC(OC6C(CO)OC(OC7C(CO)OC(OC1C(O)C2O)C(O)C7O)C(O)C6O)C(O)C5O)C(O)C4O)C(O)C3O (stereo not drawn) [Form 1],"Related substances, HPLC RRT 0.56 (Dimer)",[1]; 8 wk,0.20 % Area
same,"Related substances, HPLC RRT 0.60 (α-CD adduct)",[1]; 8 wk,0.10 % Area
same,"Related substances, HPLC RRT 1.14 (Mixed dimer)",[1]; 8 wk,0.06 % Area
same,"Related substances, HPLC RRT 1.21 (Erysolin)",[1]; 8 wk,0.30 % Area
same,"Related substances, HPLC RRT 1.58 (Thioether dimer)",[1]; 8 wk,<0.05 % Area
same,"Related substances, Total Impurities",[1]; 8 wk,0.99 % Area
same,"Related substances, HPLC RRT 0.56 (Dimer)",[1]; Initial,0.19 % Area
same,"Related substances, HPLC RRT 0.60 (α-CD adduct)",[1]; Initial,0.06 % Area
same,"Related substances, HPLC RRT 1.14 (Mixed dimer)",[1]; Initial,<0.05 % Area
same,"Related substances, HPLC RRT 1.21 (Erysolin)",[1]; Initial,0.28 % Area
same,"Related substances, HPLC RRT 1.58 (Thioether dimer)",[1]; Initial,<0.05 % Area
same,"Related substances, Total Impurities",[1]; Initial,0.90 % Area
C[S+]([O-])CCCCN=C=S.OC[C@H]1O[C@@H]2O[C@H]3[C@H](O)[C@@H](O)[C@@H](O[C@H]4[C@H](O)[C@@H](O)[C@@H](O[C@H]5[C@H](O)[C@@H](O)[C@@H](O[C@H]6[C@H](O)[C@@H](O)[C@@H](O[C@H]7[C@H](O)[C@@H](O)[C@@H](O[C@H]1[C@H](O)[C@H]2O)O[C@@H]7CO)O[C@@H]6CO)O[C@@H]5CO)O[C@@H]4CO)O[C@@H]3CO [Form 3],TGA mass loss,"[2]; 1 day exposed to ambient conditions, average of two readings",4.0* % wt
same,TGA mass loss,[2]; 3 days exposed to ambient conditions,5.1 % wt
same,TGA mass loss,[2]; 7 days exposed to ambient conditions,5.7 % wt
same,TGA mass loss,[2]; 9 days exposed to ambient conditions,6.0 % wt
same,TGA mass loss,[2]; 15 days exposed to ambient conditions,6.4 % wt
same,TGA mass loss,[2]; 20 days exposed to ambient conditions,6.2 % wt
same,stabilised water content,[2]; after gradual absorption of atmospheric moisture,approximately 6 % wt
same,water molecules per 1:1 sulforaphane:α-cyclodextrin complex,[2]; at stabilised water content,3.5 to 4
same,solid state form by XRPD (reflection mode),[3],still existed as Form 3
